Legend:
[1] = molecular target: T1, HLA-A2 (Homo sapiens, UniProt P04439, D140Y/D185E/D98H/E176V/E277Q/G131W/G231S/I119V/I121R/I166T/I218V/L300P/L318F/N151K/N90K/P208A/P217A/Q86G/Q94H/R138H/R169H/T345S); assay: Assembly assay for peptide binding to MHC class I molecules; settings: recovery of HLA-A2 at 100, 10, 1 and 0.1 μM peptide
T1 construct: empty HLA-molecules released upon cell lysis, from the TAP-deficient cell line T2; endogenous in cells; host or cells: T2 (TAP-deficient human cell line), cell lysate
Protocol: The binding affinity of the synthetic peptides (Genscript) to HLA-A2 molecules, metabolically labelled with [35^S]-methionine, was measured in the assembly assay, as described previously^33. The assay is based on peptide-mediated stabilization of empty HLA-molecules released upon cell lysis, from the TAP-deficient cell line T2. Stably folded HLA-molecules were immune-precipitated by using the HLA class-I specific, conformation dependent monoclonal (mAb) W6/32 and separated by isoelectric focusing (IEF) gel electrophoresis. Major histocompatibility complex (MHC) heavy-chain bands were quantified using the ImageGauge Phosphoimager program (FUJI Photo Film, Carrolton, TX). The intensity of the band is directly related to the amount of peptide-bound class I MHC complex recovering during the assay. The recovery of HLA-A2 was measured in presence of 100, 10, 1, and 0.1 μM of the relevant peptide. The C50 value was calculated for each peptide as the peptide concentration sufficient for half maximal stabilization.

[2] = system: CD8+ T cells in PBL; assay: HLA-A2/IDO5 tetramer flow cytometry of PBL; assay type: cell-based, human; settings: for average frequency of IDO reactive cells of total CD8+ T cells: after in vitro stimulation
Source text: (§1) For tetramer stainings, PBL from cancer patients and healthy donors as well as TIL from cancer patients were stimulated once in vitro with peptide, or analysed directly ex vivo. The CD8 cells were isolated from PBL using the Dynal CD8 negative isolation kit (Dynal Biotech) at day 7. The resulting T cell cultures were stained with PE coupled tetramer, followed by antibody staining with the flourochrome-coupled mAbs: CD8-allophycocyanin/APC-Cy7, CD3-FITC, […], CD45RO-FITC, CD45RA-PE-Cy5 and CD28-allophycocyanin (BD Immunocytometry Systems). Tetramer stainings were performed in PBS+2% FCS, for 15 min, RT, in the dark, whereas antibody stainings were performed in PBS+2% FCS, 4° C., in the dark. The MHC tetramer complexes used were: HLA-A2/IDO5 (ALLEIASCL (SEQ ID NO: 20)) and HLA-A2/HIV-1 pol476-484 ([…] (SEQ ID NO: 18)). The samples were analyzed on BD FACS aria, using DIVA software (BD Biosciences).

[3] = system: TIL cultures from HLA-A2+ melanoma and head and neck cancer patients; assay: HLA-A2/IDO5 tetramer staining of IL-2 treated TIL cultures; assay type: cell-based, human; settings: tetramer stainings
Source text: as §1

[4] = system: PBL from HLA-A2 positive cancer patients (breast cancer, melanoma, renal cell carcinoma); assay: IFN-γ ELISPOT after one in vitro peptide stimulation, cancer patients; assay type: cell-based, human; settings: HLA-A2 positive late stage cancer patients; PBL stimulated once with peptide in vitro
Protocol: (§2) To extend the sensitivity of the enzyme-linked immunospot (ELISPOT) assay, PBL were stimulated once in vitro with peptide prior to analysis^34. At day 0, PBL were thawed and plated in 2 ml/well at a concentration of 2×10^6 cells in 24-well plates (Nunc) in X-vivo medium (BioWhittaker) with 5% heat-inactivated human serum in the presence of 10 μM peptide (GenScript). One day later 40 IU/ml recombinant interleukin-2 (IL-2) (PeproTech) was added to the cultures. The cultured cells were tested in the IFN-γ ELISPOT assay on day 8.
(§3) The ELISPOT assay was used to quantify peptide epitope-specific INF-γ releasing effector cells as described previously^17. In some experiments PBMC were stimulated once in vitro with peptide prior to analysis as described^(34) to extend the sensitivity of the assay. Briefly, nitrocellulose bottomed 96-well plates (MultiScreen MAIP N45; Millipore) were coated with anti-IFN-γ Ab (1-D1K; Mabtech). The wells were washed, blocked by X-vivo medium and the effector cells were added in duplicates at different cell concentrations, with or without 10 μM peptide. The plates were incubated overnight. The following day, medium was discarded and the wells were washed prior to addition of biotinylated secondary Ab (7-B6-1-Biotin; Mabtech). The plates were incubated at room temperature (RD for 2 h, washed, and Avidin-enzyme conjugate (AP-Avidin; Calbiochem/Invitrogen Life Technologies) was added to each well. Plates were incubated at RT for 1 h and the enzyme substrate NBT/BCIP (Invitrogen Life Technologies) was added to each well and incubated at RT for 5-10 min. Upon the emergence of dark purple spots, the reaction was terminated by washing with tap water. The spots were counted using the ImmunoSpot Series 2.0 Analyzer (CTL Analyzers) and the peptide-specific CTL frequency could be calculated from the numbers of spot-forming cells.
(§4) Eleven IDO-derived peptides were selected using algorithms based on the main HLA-A2 specific anchor residues and subsequently synthesized^16. […]

[5] = system: PBL from healthy individuals; assay: IFN-γ ELISPOT after one in vitro peptide stimulation, healthy individuals; assay type: cell-based, human
Protocol: as §2, §3, §4

[6] = system: IDO; assay: Intracellular IDO staining by flow cytometry; assay type: cell-based, human
Source text: Cancer cell lines and DC were examined for expression of IDO using flow cytometry. After fixation and permeabilization (Cytofix/Cytoperm, BD), cells were stained with mouse anti-IDO antibody (Millipore Corporation) followed by FITC-labeled anti-mouse secondary antibody (DAKO). For all experiments, a negative control only stained with the FITC-coupled secondary antibody was included, to determine the background fluorescence from falsely attached secondary antibodyE and auto-fluorescence. The IDO expression was determined using the staining index defined as MFIpositive−MFIbackground/2×SDbackground where MFI is mean fluorescence intensity. Cells were defined IDO positive if the staining index>1^21.

[7] = system: HLA-A2; assay: HLA-A2 expression by flow cytometry; assay type: cell-based, human; settings: CAMA-1+IFN-γ treatment (untreated 43.7)
Protocol: Cancer cells were examined for HLA-A2 expression using flow cytometry. Cells were stained with a fluorochrome-coupled HLA-A2 mAb (BD Bioscience). For comparison, cells were stained with an isotype matched control. The samples were analyzed on BD FACS aria, using DIVA software (BD Biosciences). Assuming normality, HLA-A2 expression was given by a one-tailed two sampled T-test comparing MFIHLA-A2 and MFIIsotype control, where MFI is the Mean Fluorescence 9 Intensity. For p-values<0.05 (significance level) cells were defined HLA-A2+. The fold of expression was defined as MFIHLA-A2/MFIIsotype control.

Q: With “ALLEIASCL (listed as Homo sapiens) [IDO5]” as the substance, how does the “binding affinity to HLA-A2 compared with the high affinity positive control epitope HIV-1 pol476-484” value [1] read?
A: bound HLA-A2 even better than the high-affinity control epitope

Q: What about the “average frequency of IDO reactive cells of total CD8+ T cells” value ([2]; 7 HLA-A2 positive healthy donors) of the same substance?
A: 0.001%

Q: And the “average frequency of IDO reactive cells of total CD8+ T cells” value ([2]; 11 HLA-A2 positive cancer patients)?
A: 0.03%

Q: And the “detection of IDO-reactive T cells in healthy donors” value ([2]; tetramer staining, healthy donors)?
A: No IDO-reactive T cells could be detected

Q: What about the “analyzed patients with detectable IDO5-specific T cells among TIL” value [3] of the same substance?
A: 4 of the 5

Q: And the “ELISPOT responses in PBL of cancer patients” value (shortened to “ELISPOT responses in PBL”) [4]?
A: ELISPOT responses were detected

Q: What about the “spontaneous ELISPOT responses in healthy controls” value (“spontaneous ELISPOT responses” below) [5] of the same substance?
A: No spontaneous responses could be detected

Q: With “FLVSLLVEI (listed as Homo sapiens) [IDO2]” as the substance, how does the “ELISPOT responses in PBL” value [4] read?
A: ELISPOT responses were detected

Q: What about the “spontaneous ELISPOT responses” value [5] of the same substance?
A: No spontaneous responses could be detected

Q: Which IDO staining index ([6]; CAMA-1+IFN-γ (untreated CAMA-1 1.3), IDO positive if index>1) does the source give for “IFN-γ: cytokine used to treat cancer cells, 100 U/ml for 2 days” here?
A: 1.8

Q: And the MFIIDO/MFIIsotype control ([6]; CAMA-1+IFN-γ treatment (untreated 2.3))?
A: 3.5

Q: And the “expression of IDO in CAMA-1 and MDA-MB-231 after treatment” value ([6]; both cell lines)?
A: increased the expression of IDO

Q: And the “HLA-A2 expression, fold over isotype control” value [7]?
A: 141.2

Q: Which “ELISPOT responses in PBL” value [4] does the source give for “VLSKGDGL (VLSKGDAGL; listed as Homo sapiens) [IDO6]” here?
A: ELISPOT responses were detected

Q: What about the “spontaneous ELISPOT responses” value [5] of the same substance?
A: No spontaneous responses could be detected
